According to article doi:10.1101/2021.10.07.463234v2 (biorxiv, 2021):
Where a name gives a salt, the structure may show the parent alone.

What follows are molecules tested against SARS-CoV-2 Mac1 (Severe acute respiratory syndrome coronavirus 2, UniProt P0DTD1) (assay: biochemical). Details: 100 µM; inhibitor.
`CCOC(=O)C1=C[C@@H](OC(CC)CC)[C@H](NC(C)=O)[C@@H](N)C1` [Oseltamivir Phosphate] was tested, and the “%inhibition” value was 4.261%. `O=C(O)/C=C/c1ccc(Cn2ccnc2)cc1` [Ozagrel HCl] was tested, and the “%inhibition” value was 0%. `O=C(O)/C=C/c1ccc(Cn2ccnc2)cc1` [Ozagrel sodium] was tested, and the “%inhibition” value was 1.667%. With `O=C(O)/C=C/c1ccc(Cn2ccnc2)cc1` [Ozagrel] the “%inhibition” value was 4.368%. For `COc1ccnc(C[S+]([O-])c2nc3cc(OC(F)F)ccc3[nH]2)c1OC` (centres unmarked) [Pantoprazole sodium], the “%inhibition” value was 0%. For `COc1ccnc(C[S+]([O-])c2nc3cc(OC(F)F)ccc3[nH]2)c1OC` (centres unmarked) [Pantoprazole], the “%inhibition” value was 6.936%. For `CCC(=O)NS(=O)(=O)c1ccc(-c2c(-c3ccccc3)noc2C)cc1` [Parecoxib Sodium], the “%inhibition” value was 8.572%. For `CCC(=O)NS(=O)(=O)c1ccc(-c2c(-c3ccccc3)noc2C)cc1` [Parecoxib], the “%inhibition” value was 0%. In the case of `Fc1ccc([C@@H]2CCNC[C@H]2COc2ccc3c(c2)OCO3)cc1` [Paroxetine HCl], the “%inhibition” value is reported as 28.69%. `Fc1ccc([C@@H]2CCNC[C@H]2COc2ccc3c(c2)OCO3)cc1` [Paroxetine mesylate] was tested, and the “%inhibition” value was 0%. `Cc1ccc(Nc2nccc(N(C)c3ccc4c(C)n(C)nc4c3)n2)cc1S(N)(=O)=O` [Pazopanib HCl (GW786034 HCl)] was tested, and the “%inhibition” value was 31.56%. For `Cc1ccc(Nc2nccc(N(C)c3ccc4c(C)n(C)nc4c3)n2)cc1S(N)(=O)=O` [Pazopanib], the “%inhibition” value was 12.94%. With `Nc1nc2[nH]cc(CCc3ccc(C(=O)N[C@@H](CCC(=O)O)C(=O)O)cc3)c2c(=O)[nH]1` [Pemetrexed] the “%inhibition” value was 4.612%.

Same assay, conditions: read-out: %inhibition
Work on `CC[C@H]1[C@@H](O)[C@@H]2[C@H](CC[C@]3(C)[C@@H]([C@H](C)CCC(=O)O)CC[C@@H]23)[C@@]2(C)CC[C@@H](O)C[C@@H]12` [Obeticholic Acid] yielded an inhibition at 100 µM of 37.3%. With `CNS(=O)(=O)C[C@H]1CC[C@H](N(C)c2[nH]cnc3nccc2-3)CC1` [Oclacitinib?maleate] the inhibition at 100 µM was 0%. `CCCCCCCCN=c1ccn(CCCCCCCCCCn2ccc(=NCCCCCCCC)cc2)cc1` [Octenidine Dihydrochloride] gave an inhibition at 100 µM of 16%. In the case of `CCCCC(CC)COC(=O)C=Cc1ccc(OC)cc1` (centres unmarked) [Octinoxate], the inhibition at 100 µM is reported as 0%. `CCCCC(CC)COC(=O)C(C#N)=C(c1ccccc1)c1ccccc1` (centres unmarked) [Octocrylene] showed an inhibition at 100 µM of 0%. Molecule `O=C(c1cc(Cc2n[nH]c(=O)c3ccccc23)ccc1F)N1CCN(C(=O)C2CC2)CC1` [Olaparib (AZD2281, Ku-0059436)] has an inhibition at 100 µM of 20.2%. In the case of `CCCc1nc(C(C)(C)O)c(C(=O)OCc2oc(=O)oc2C)n1Cc1ccc(-c2ccccc2-c2nnn[nH]2)cc1` [Olmesartan Medoxomil], the inhibition at 100 µM is reported as 0%. `CCCc1nc(C(C)(C)O)c(C(=O)O)n1Cc1ccc(-c2ccccc2-c2nnn[nH]2)cc1` [Olmesartan] gave an inhibition at 100 µM of 0%. With `C=CC(=O)Nc1cccc(Oc2nc(Nc3ccc(N4CCN(C)CC4)cc3)nc3ccsc23)c1` [Olmutinib (HM61713, BI 1482694)] the inhibition at 100 µM was 22.3%. In the case of `CN(C)CC/C=C1/c2ccccc2COc2ccc(CC(=O)O)cc21` [Olopatadine HCl], the inhibition at 100 µM is reported as 2.14%. `Cc1[nH]c(=O)c(C#N)cc1-c1ccc2nccn2c1` [Olprinone] was tested, and the inhibition at 100 µM was 0%. Molecule `O=C(O)c1cc(/N=N/c2ccc(O)c(C(=O)O)c2)ccc1O` [Olsalazine Sodium] has an inhibition at 100 µM of 11.8%. In the case of `Cc1c(-c2cnccn2)ssc1=S` [Oltipraz], the inhibition at 100 µM is reported as 0%. Molecule `CS(=O)(=O)n1cc2c(n1)CN([C@H]1CO[C@H](c3cc(F)ccc3F)[C@@H](N)C1)C2` [Omarigliptin (MK-3102)] has an inhibition at 100 µM of 0%. `COc1ncc(-c2ccc3nccc(-c4ccnnc4)c3c2)cc1NS(=O)(=O)c1ccc(F)cc1F` [Omipalisib (GSK2126458, GSK458)] was tested, and the inhibition at 100 µM was 7.47%. With `CC(C)c1cc(C(=O)N2Cc3ccc(CN4CCN(C)CC4)cc3C2)c(O)cc1O` [Onalespib (AT13387)] the inhibition at 100 µM was 5.85%. With `Cc1nccn1CC1CCc2c(c3ccccc3n2C)C1=O` (centres unmarked) [Ondansetron Hydrochloride Dihydrate] the inhibition at 100 µM was 0%. For `Cc1[nH]c(/C=C2\C(=O)Nc3ccccc32)c(C)c1CCC(=O)O` [Orantinib (TSU-68, SU6668)], the inhibition at 100 µM was 16.7%. `CCCCCCCCCCC[C@@H](C[C@@H]1OC(=O)[C@H]1CCCCCC)OC(=O)[C@H](CC(C)C)NC=O` [Orlistat] gave an inhibition at 100 µM of 0%. In the case of `Cc1ncc([N+](=O)[O-])n1CC(O)CCl` (centres unmarked) [Ornidazole], the inhibition at 100 µM is reported as 17.6%. `O=C(O)c1cc(=O)[nH]c(=O)[nH]1` [Orotic acid (6-Carboxyuracil)] was tested, and the inhibition at 100 µM was 0%. For `C=CC(=O)Nc1cc(Nc2nccc(-c3cn(C)c4ccccc34)n2)c(OC)cc1N(C)CCN(C)C` [Osimertinib (AZD9291)], the inhibition at 100 µM was 0%. `OCCOc1ccc(/C(=C(/CCCl)c2ccccc2)c2ccccc2)cc1` [Ospemifene] gave an inhibition at 100 µM of 16.8%. `CCNC1(C(N)=O)CCN(c2ncnc3c2nc(-c2ccccc2Cl)n3-c2ccc(Cl)cc2)CC1` [Otenabant (CP-945598) HCl] was tested, and the inhibition at 100 µM was 2.29%. With `CCCCCCCCOc1ccccc1C(=O)Nc1ccc(C(=O)OCC[N+](C)(CC)CC)cc1` [Otilonium Bromide] the inhibition at 100 µM was 11%. `C[C@@H]1O[C@@H](O[C@H]2C[C@@H](O)[C@]3(CO)[C@H]4[C@H](O)C[C@]5(C)[C@@H](C6=CC(=O)OC6)CC[C@]5(O)[C@@H]4CC[C@]3(O)C2)[C@H](O)[C@H](O)[C@H]1O` [Ouabain] was tested, and the inhibition at 100 µM was 0%. Work on `CC(=O)N1C[C@H](O)C[C@H]1C(=O)O` [Oxaceprol] yielded an inhibition at 100 µM of 0%. Work on `Cc1onc(-c2ccccc2)c1C(=O)N[C@@H]1C(=O)N2[C@@H]1SC(C)(C)[C@@H]2C(=O)O` [Oxacillin sodium monohydrate] yielded an inhibition at 100 µM of 0%. In the case of `O=C(O)CCc1nc(-c2ccccc2)c(-c2ccccc2)o1` [Oxaprozin], the inhibition at 100 µM is reported as 11.8%. For `NC(=O)N1c2ccccc2CC(=O)c2ccccc21` [Oxcarbazepine], the inhibition at 100 µM was 0%. `CCN(CC)CCOCCOC(=O)C(CC)(CC)c1ccccc1` [Oxeladin Citrate] gave an inhibition at 100 µM of 0.462%. With `CN(C(=O)CN(CCO)CC(=O)N(C)C(C)(C)Cc1ccccc1)C(C)(C)Cc1ccccc1` [Oxethazaine] the inhibition at 100 µM was 19.2%. Molecule `COC(=O)Nc1nc2cc([S+]([O-])c3ccccc3)ccc2[nH]1` (centres unmarked) [Oxfendazole] has an inhibition at 100 µM of 0%. Work on `NCCc1cc(O)c(O)cc1O` [Oxidopamine (hydrobromide)] yielded an inhibition at 100 µM of 0%. With `NC(=O)CN1CC(O)CC1=O` (centres unmarked) [Oxiracetam] the inhibition at 100 µM was 21.6%. Molecule `COc1ccc(C(=O)c2ccccc2)c(O)c1` [Oxybenzone] has an inhibition at 100 µM of 0.0343%. `CCCCOc1cc(C(=O)OCCN(CC)CC)ccc1N` [Oxybuprocaine HCl] gave an inhibition at 100 µM of 8.43%. In the case of `O=C(Nc1cc(Cl)cc(Cl)c1O)c1c(O)c(Cl)cc(Cl)c1Cl` [Oxyclozanide], the inhibition at 100 µM is reported as 8.75%. `CN(C)[C@@H]1C(=O)C(C(N)=O)=C(O)[C@@]2(O)C(=O)C3=C(O)c4c(O)cccc4[C@@](C)(O)C3[C@H](O)C12` (some centres unmarked) [Oxytetracycline (Terramycin)] showed an inhibition at 100 µM of 15.9%. `CN(C)[C@@H]1C(O)=C(C(N)=O)C(=O)[C@@]2(O)C(O)=C3C(=O)c4c(O)cccc4[C@@](C)(O)[C@H]3[C@H](O)[C@@H]12` [Oxytetracycline Dihydrate] gave an inhibition at 100 µM of 0%. In the case of `CC(C)Oc1ccc(-c2nc(-c3cccc4c3CC[C@@H]4NCCO)no2)cc1C#N` [Ozanimod (RPC1063)], the inhibition at 100 µM is reported as 0%. Molecule `CC(=O)O[C@H]1C(=O)[C@@]2(C)[C@H]([C@H](OC(=O)c3ccccc3)[C@]3(O)C[C@H](OC(=O)[C@H](O)[C@@H](NC(=O)c4ccccc4)c4ccccc4)C(C)=C1C3(C)C)[C@]1(OC(C)=O)CO[C@@H]1C[C@@H]2O` [Paclitaxel] has an inhibition at 100 µM of 6.04%. Work on `C1=N/C2=N/c3ccc(OCCN4CCCC4)c(c3)COC/C=C/COCc3cccc(c3)C(=C1)N2` [Pacritinib (SB1518)] yielded an inhibition at 100 µM of 0%. Molecule `CC(=O)c1c(C)c2cnc(Nc3ccc(N4CCNCC4)cn3)nc2n(C2CCCC2)c1=O` [Palbociclib (PD-0332991) HCl] has an inhibition at 100 µM of 0%. `Cc1nc2n(c(=O)c1CCN1CCC(c3noc4cc(F)ccc34)CC1)CCCC2O` (centres unmarked) [Paliperidone] showed an inhibition at 100 µM of 1.55%. Work on `O=C1c2cccc3c2[C@H](CCC3)CN1[C@@H]1CN2CCC1CC2` [Palonosetron HCl] yielded an inhibition at 100 µM of 0%. `NCCC(O)(P(=O)(O)O)P(=O)(O)O` [Pamidronate Disodium] gave an inhibition at 100 µM of 0.654%. With `CC(=O)O[C@H]1C[C@@H]2CC[C@@H]3[C@H](CC[C@@]4(C)[C@H]3C[C@H]([N+]3(C)CCCCC3)[C@@H]4OC(C)=O)[C@@]2(C)C[C@@H]1[N+]1(C)CCCCC1` [Pancuronium dibromide] the inhibition at 100 µM was 0%. For `Cc1[nH]c2ccccc2c1CCNCc1ccc(/C=C/C(=O)NO)cc1` [Panobinostat (LBH589)], the inhibition at 100 µM was 7.31%. Molecule `C#CCN(C)Cc1ccccc1` [Pargyline hydrochloride] has an inhibition at 100 µM of 0%. `Cc1cnc(C(=O)N[C@H]2CCCCC/C=C\[C@@H]3C[C@@]3(C(=O)NS(=O)(=O)C3CC3)NC(=O)[C@@H]3C[C@@H](Oc4nc5ccccc5c5ccccc45)CN3C2=O)cn1` [Paritaprevir (ABT-450)] was tested, and the inhibition at 100 µM was 0%. In the case of `NC[C@@H]1O[C@H](O[C@H]2[C@@H](O)[C@H](O[C@@H]3[C@@H](O)[C@H](N)C[C@H](N)[C@H]3O[C@H]3O[C@H](CO)[C@@H](O)[C@H](O)[C@H]3N)O[C@@H]2CO)[C@H](N)[C@@H](O)[C@@H]1O` [Paromomycin Sulfate], the inhibition at 100 µM is reported as 0.814%. Work on `C/C(=C\c1csc(C)n1)[C@@H]1C[C@@H]2O[C@]2(C)CCC[C@H](C)[C@H](O)[C@@H](C)C(=O)C(C)(C)[C@@H](O)CC(=O)O1` [Patupilone (EPO906, Epothilone B)] yielded an inhibition at 100 µM of 19.2%. `C[C@H]1COc2c(C3(N)CC3)c(F)cc3c(=O)c(C(=O)O)cn1c23` [Pazufloxacin mesylate] was tested, and the inhibition at 100 µM was 0%. In the case of `CCOc1cc2ncc(C#N)c(Nc3ccc(F)c(Cl)c3)c2cc1NC(=O)/C=C/CN(C)C` [Pelitinib (EKB-569)], the inhibition at 100 µM is reported as 0%. In the case of `Nc1nc2[nH]cc(CCc3ccc(C(=O)N[C@@H](CCC(=O)O)C(=O)O)cc3)c2c(=O)[nH]1` [Pemetrexed Disodium Hydrate], the inhibition at 100 µM is reported as 6.24%. With `Cc1cccn2c(=O)c(-c3nnn[nH]3)cnc12` [Pemirolast potassium] the inhibition at 100 µM was 0%. Work on `CN1C(C)(C)CCCC1(C)C` [Pempidine] yielded an inhibition at 100 µM of 28.2%.
